{
  "source": "patent USRE38828E1",
  "about": "“Parevins and tachytegrins” (IntraBiotics Pharmaceuticals, Inc., priority 1995, dated 2005)",
  "key": {"[1]": {"system": "Staphylococcus aureus (MRSA)", "assay_type": "cell-based", "description": "(§1) The radial diffusion assay in agarose gels is conducted using radiodiffusion and gel overlay techniques as described by Lehrer, R. I. et al. J Immunol Meth (1991) 137:167-173. […] In some cases, the underlay was supplemented with 100 mM NaCl. The units of activity in the radial diffusion assay were measured as described; 10 units correspond to a 1 mm diameter clear zone around the sample well. FIGS. 1-6 show the results against five test organisms in units described as above. A synthetic protegrin (PG-1) containing two cystines (sPG-1) or PG-1 in linear form were used as controls.\n(§2) Several illustrative tachytegrins were synthesized as described in Example 1 and tested for activity against Staphylococcus aureus (MRSA), Pseudomonas (Psa), VREF, Candida and E. coli as described in Example 2. The results shown in Table 1 as minimal inhibitory concentration (MIC) in ug/ml were obtained with the C-terminal amidated forms except for the last two which were tested as the free acids, as indicated by *. In all peptides in Table 1, X is MeGly."}, "Pseudomonas (Psa)": {"system": "Pseudomonas (Psa)", "assay": "minimal inhibitory concentration, Pseudomonas", "assay_type": "cell-based", "conditions": "C-terminal amidated forms except * (free acids)", "description": "as §1, §2"}, "[2]": {"system": "T. vaginallis strain C1 (ATCC 30001)", "assay": "Trichomonas vaginalis motility, lysis and growth", "assay_type": "cell-based, Trichomonas vaginallis", "description": "For Trichomonas vaginallis, strain C1 (ATCC 30001) is grown as described by Gorrell, T. E. et al., Carlsberg Res Comm (1984) 49:259-268. […] Soon thereafter, the organisms become permeable to trypan blue, and, over the ensuing 15-30 minutes, lyse. As expected, such organisms fail to grow when introduced into their customary growth medium (Diamond's medium)."}, "E. coli ML-35p": {"system": "E. coli ML-35p", "assay": "radial diffusion assay in agarose gels, E. coli", "assay_type": "cell-based", "description": "Media for testing antimicrobial activity are designed to mimic certain specific conditions. The standard buffer medium, medium A, uses an underlay agar with the following composition: 0.3 mg/ml of trypticase soy broth powder, 1% w/v agarose and 10 mM sodium phosphate buffer (final pH 7.4). This will be designated either “medium A” or “standard in vitro conditions” herein.\nA second medium contains 100 mM NaCl in order to mimic the salt levels in blood and tissue fluids. This will be designated “medium B” or “salt medium” herein.\nas §1"}, "E. coli": {"system": "E. coli", "assay_type": "cell-based", "description": "as §1, §2"}, "VREF": {"system": "VREF", "assay_type": "cell-based", "description": "as §1, §2"}, "[3]": {"conditions": "FIG. 1, E. coli, in the absence of salt"}, "[4]": {"conditions": "FIG. 1, E. coli, in the presence of 100 mM NaCl"}, "[5]": {"conditions": "FIG. 4, E. coli ML-35p, in the absence of salt"}, "[6]": {"conditions": "FIG. 4, E. coli ML-35p, in the presence of 100 mM NaCl"}},
  "note": "Bridge positions count the residues as written; N and C are the ends. Square brackets hold non-standard residues; d marks the D form. Ends that are not written are not given here. Peptide text beside a SMILES is read from it. Sar = CNCC(=O)O",
  "data": [
    {"molecule": "CC(C)C[C@@H]1NC(=O)[C@@H](NC(=O)CNC(=O)CNC(=O)[C@@H](N)CCCNC(=N)N)CSSC[C@@H](C(=O)N[C@@H](CCCNC(=N)N)C(N)=O)NC(=O)[C@H](C(C)C)NC(=O)[C@H](CCCNC(=N)N)NC(=O)[C@H](C(C)C)NC(=O)[C@H](C)NC(=O)[C@H](Cc2ccccc2)NC(=O)[C@H](CCCNC(=N)N)NC(=O)[C@@H]2CCCN2C(=O)[C@H](C(C)C)NC(=O)[C@H](C)NC(=O)[C@H](Cc2ccc(O)cc2)NC(=O)[C@H](CCCNC(=N)N)NC1=O", "note": "[RGGCLRYAVPRFAVRVCR] (H-RGGCLRYAVPRFAVRVCR-NH2; disulfide 4-17; N-terminus assumed)", "values": [
      {"measurement": "minimal inhibitory concentration (MIC) MRSA", "setting": "[1]", "result": ">128", "unit": "µg/mL"},
      {"measurement": "minimal inhibitory concentration (MIC) Paa", "setting": "Pseudomonas (Psa)", "result": 0.05, "unit": "µg/mL"}
    ]},
    {"molecule": "PG-1: protegrin PG-1 (RGGRLCYCRRRFCVCVGR; ends and bridges not checked; also: two disulfide bonds, pairing not given here; UniProt P32194 131-148, looked up)", "values": [
      {"measurement": "motility of T. vaginallis", "setting": "[2]; 50 ug/ml, RPMI+1% heat-activated fetal calf serum, within a few minutes after exposure", "result": "becomes stationary"},
      {"measurement": "lysis of T. vaginallis", "setting": "[2]; 50 ug/ml, over the ensuing 15-30 minutes", "result": "lyse"},
      {"measurement": "growth of exposed organisms in Diamond's medium", "setting": "[2]; after exposure to 50 ug/ml", "result": "fail to grow"}
    ]},
    {"molecule": "CC(C)C[C@@H]1NC(=O)[C@@H](NC(=O)CNC(=O)CNC(=O)[C@@H](N)CCCNC(=N)N)CSSC[C@@H](C(=O)N[C@@H](CCCNC(=N)N)C(N)=O)NC(=O)[C@H](C(C)C)NC(=O)[C@H](CCCNC(=N)N)NC(=O)[C@H](C(C)C)NC(=O)[C@H](C)NC(=O)[C@H](Cc2ccccc2)NC(=O)[C@H](CCCNC(=N)N)NC(=O)CN(C)C(=O)[C@H](CCCNC(=N)N)NC(=O)[C@H](C)NC(=O)[C@H](Cc2ccc(O)cc2)NC(=O)[C@H](CCCNC(=N)N)NC1=O", "note": "[RGGCLRYARXRFAVRVCR] (H-RGGCLRYAR[Sar]RFAVRVCR-NH2; disulfide 4-17 (inferred); N-terminus assumed)", "values": [
      {"measurement": "minimal inhibitory concentration (MIC) MRSA", "setting": "[1]", "result": ">32", "unit": "µg/mL"},
      {"measurement": "minimal inhibitory concentration (MIC) Paa", "setting": "Pseudomonas (Psa)", "result": 5.7, "unit": "µg/mL"}
    ]},
    {"molecule": "tachytegrin: tachytegrin with disulfide bridges C4-C17 and C8-C13 (RGGCRLYCRRRFCVVGCR; disulfide 8-13, 4-17)", "values": [
      {"measurement": "antibacterial activity, radial diffusion (effectiveness)", "setting": "E. coli ML-35p; [3]", "result": "slightly more effective than sPG-1 although slightly less effective than linear PG-1"},
      {"measurement": "antibacterial activity, radial diffusion (effectiveness)", "setting": "E. coli ML-35p; [4]", "result": "comparably effective"}
    ]},
    {"molecule": "CC(C)C[C@@H]1NC(=O)[C@@H](NC(=O)[C@H](Cc2ccccc2)NC(=O)CNC(=O)[C@@H](N)CCCNC(=N)N)CSSC[C@@H](C(=O)N[C@@H](CCCNC(=N)N)C(N)=O)NC(=O)[C@H](C(C)C)NC(=O)[C@H](Cc2ccccc2)NC(=O)[C@H](CCCNC(=N)N)NC(=O)[C@H](C(C)C)NC(=O)CN(C)C(=O)[C@H](Cc2ccccc2)NC(=O)[C@H](CCCNC(=N)N)NC(=O)CNC(=O)[C@H](C(C)C)NC(=O)CN(C)C(=O)[C@H](Cc2ccc(O)cc2)NC(=O)[C@H](CCCNC(=N)N)NC1=O", "note": "[RGFCLRYXVGRFXVRFVCR] (H-RGFCLRY[Sar]VGRF[Sar]VRFVCR-NH2; disulfide 4-18 (inferred); N-terminus assumed)", "values": [
      {"measurement": "minimal inhibitory concentration (MIC) MRSA", "setting": "[1]", "result": ">54", "unit": "µg/mL"}
    ]},
    {"molecule": "CC(C)C[C@@H]1NC(=O)[C@@H](NC(=O)[C@H](Cc2ccccc2)NC(=O)CNC(=O)[C@@H](N)CCCNC(=N)N)CSSC[C@@H](C(=O)N[C@H](C(=O)N[C@@H](CCCNC(=N)N)C(N)=O)C(C)C)NC(=O)[C@H](Cc2ccccc2)NC(=O)[C@H](CCCNC(=N)N)NC(=O)[C@H](C(C)C)NC(=O)[C@H]([C@@H](C)O)NC(=O)[C@H](Cc2ccccc2)NC(=O)[C@H](CCCNC(=N)N)NC(=O)[C@@H]2CCCN2C(=O)[C@H](C(C)C)NC(=O)[C@H]([C@@H](C)O)NC(=O)[C@H](Cc2ccc(O)cc2)NC(=O)[C@H](CCCNC(=N)N)NC1=O", "note": "[RGFCLRYTVPRFTVRFCVR] (H-RGFCLRYTVPRFTVRFCVR-NH2; disulfide 4-17; N-terminus assumed)", "values": [
      {"measurement": "minimal inhibitory concentration (MIC) E. Coli", "setting": "E. coli", "result": 0.99, "unit": "µg/mL"},
      {"measurement": "minimal inhibitory concentration (MIC) MRSA", "setting": "[1]", "result": 1.88, "unit": "µg/mL"},
      {"measurement": "minimal inhibitory concentration (MIC) Paa", "setting": "Pseudomonas (Psa)", "result": 0.57, "unit": "µg/mL"}
    ]},
    {"molecule": "trans-parevin: parevin with disulfide bridges C5-C16 and C8-C13 (RGGRCLYCRRRFCVVCGR; disulfide 8-13, 5-16)", "values": [
      {"measurement": "antibacterial activity, radial diffusion (effectiveness)", "setting": "E. coli ML-35p; [3]", "result": "slightly more effective than sPG-1 although slightly less effective than linear PG-1"},
      {"measurement": "antibacterial activity, radial diffusion (effectiveness)", "setting": "E. coli ML-35p; [4]", "result": "comparably effective"},
      {"measurement": "antibacterial activity, radial diffusion (effectiveness)", "setting": "E. coli ML-35p; [5]", "result": "comparably effective in the absence of salt and both were more effective than sPG-1"},
      {"measurement": "antibacterial activity, radial diffusion (effectiveness)", "setting": "E. coli ML-35p; [6]", "result": "maintained their effectiveness and were comparable"}
    ]},
    {"molecule": "CC(C)C[C@@H]1NC(=O)[C@@H](NC(=O)CNC(=O)CNC(=O)[C@@H](N)CCCNC(=N)N)CSSC[C@@H](C(=O)N[C@@H](CCCNC(=N)N)C(=O)O)NC(=O)[C@H](C(C)C)NC(=O)[C@H](CCCNC(=N)N)NC(=O)[C@H](C(C)C)NC(=O)[C@H](C)NC(=O)[C@H](Cc2ccccc2)NC(=O)[C@H](CCCNC(=N)N)NC(=O)CNC(=O)[C@H](C(C)C)NC(=O)[C@H](C)NC(=O)[C@H](Cc2ccc(O)cc2)NC(=O)[C@H](CCCNC(=N)N)NC1=O", "note": "[RGGCLRYAVGRFAVRVCR] (H-RGGCLRYAVGRFAVRVCR-OH; disulfide 4-17; N-terminus assumed)", "values": [
      {"measurement": "minimal inhibitory concentration (MIC) MRSA", "setting": "[1]", "result": ">32", "unit": "µg/mL"},
      {"measurement": "minimal inhibitory concentration (MIC) VREF", "setting": "VREF", "result": 5.3, "unit": "µg/mL"}
    ]},
    {"molecule": "CC(C)C[C@@H]1NC(=O)[C@@H](NC(=O)[C@H](Cc2ccccc2)NC(=O)CNC(=O)[C@@H](N)CCCNC(=N)N)CSSC[C@@H](C(=O)N[C@H](C(=O)N[C@@H](CCCNC(=N)N)C(=O)O)C(C)C)NC(=O)[C@H](Cc2ccccc2)NC(=O)[C@H](CCCNC(=N)N)NC(=O)[C@H](C(C)C)NC(=O)CN(C)C(=O)[C@H](Cc2ccccc2)NC(=O)[C@H](CCCNC(=N)N)NC(=O)CNC(=O)[C@H](C(C)C)NC(=O)CN(C)C(=O)[C@H](Cc2ccc(O)cc2)NC(=O)[C@H](CCCNC(=N)N)NC1=O", "note": "[RGFCLRYXVGRFXVRFCVR] (H-RGFCLRY[Sar]VGRF[Sar]VRFCVR-OH; disulfide 4-17 (inferred); N-terminus assumed)", "values": [
      {"measurement": "minimal inhibitory concentration (MIC) MRSA", "setting": "[1]", "result": ">32", "unit": "µg/mL"},
      {"measurement": "minimal inhibitory concentration (MIC) VREF", "setting": "VREF", "result": 12, "unit": "µg/mL"}
    ]},
    {"molecule": "PG-3: protegrin PG-3 (RGGGLCYCRRRFCVCVGR; ends and bridges not checked; cysteine pairing not given here; UniProt P32196 131-148, looked up)", "values": [
      {"measurement": "motility of T. vaginallis", "setting": "[2]; 25 ug/ml", "result": "retain their motility"}
    ]},
    {"molecule": "cis-parevin: parevin with disulfide bridges C5-C8 and C13-C16 (RGGRCLYCRRRFCIVCG; disulfide 13-16, 5-8)", "values": [
      {"measurement": "antibacterial activity, radial diffusion (effectiveness)", "setting": "E. coli ML-35p; [5]", "result": "comparably effective in the absence of salt and both were more effective than sPG-1"},
      {"measurement": "antibacterial activity, radial diffusion (effectiveness)", "setting": "E. coli ML-35p; [6]", "result": "maintained their effectiveness and were comparable"}
    ]}
  ]
}
